According to ChEMBL document CHEMBL4507310, “Data for DCP probe A-1211212” (2021):
The source made the active and inactive calls. The rule behind the calls is not given here.

Tests used:
[1] = biological target: T1, Alpha-2A adrenergic receptor (Homo sapiens) (UniProt P08913); conditions: Compound concentration 10.0 uM
T1 sequence (whole entry): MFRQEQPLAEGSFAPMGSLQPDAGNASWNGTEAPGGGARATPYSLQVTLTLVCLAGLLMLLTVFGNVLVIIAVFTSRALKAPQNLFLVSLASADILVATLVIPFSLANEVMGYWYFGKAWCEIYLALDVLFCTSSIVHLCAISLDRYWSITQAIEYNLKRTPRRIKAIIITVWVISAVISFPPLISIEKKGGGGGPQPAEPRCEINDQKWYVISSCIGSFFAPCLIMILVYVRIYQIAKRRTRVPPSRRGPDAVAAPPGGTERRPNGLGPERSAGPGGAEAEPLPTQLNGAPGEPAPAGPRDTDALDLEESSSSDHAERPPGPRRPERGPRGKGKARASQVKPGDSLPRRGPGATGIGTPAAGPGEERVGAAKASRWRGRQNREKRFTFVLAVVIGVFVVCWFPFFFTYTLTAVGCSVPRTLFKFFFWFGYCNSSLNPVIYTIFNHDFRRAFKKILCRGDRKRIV

[2] = biological target: Tyrosine-protein kinase SYK (Homo sapiens) (UniProt P43405); conditions: Compound concentration 1000.0 nM
[3] = biological target: 5-hydroxytryptamine receptor 2A (Homo sapiens) (UniProt P28223); experiment: 5-HT2A (h) Eurofins-Cerep binding assay; set-up: ligand concentration 0.5 nM; conditions: filed as antagonist, Compound concentration 10.0 uM
[4] = biological target: Apoptosis regulator Bcl-2 (Homo sapiens, UniProt P10415); experiment: Time-resolved fluorescence energy transfer (TR-FRET) with BCL2
Sequence of Apoptosis regulator Bcl-2 (P10415 whole entry): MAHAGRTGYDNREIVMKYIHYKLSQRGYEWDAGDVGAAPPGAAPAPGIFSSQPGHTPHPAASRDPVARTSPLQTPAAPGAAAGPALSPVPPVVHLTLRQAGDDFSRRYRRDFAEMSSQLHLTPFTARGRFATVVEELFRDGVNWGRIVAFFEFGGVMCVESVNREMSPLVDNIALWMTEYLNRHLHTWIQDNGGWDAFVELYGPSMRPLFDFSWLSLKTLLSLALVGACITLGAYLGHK

[5] = biological target: Ribosomal protein S6 kinase alpha-2 (Homo sapiens) (UniProt Q15349); conditions: Compound concentration 1000.0 nM
[6] = biological target: Mitogen-activated protein kinase kinase kinase 7 (Homo sapiens) (UniProt O43318); conditions: Compound concentration 1000.0 nM
[7] = biological target: Beta-2 adrenergic receptor (Homo sapiens) (UniProt P07550); experiment: Beta2 (h) Eurofins-Cerep binding assay; set-up: ligand concentration 0.3 nM; conditions: filed as antagonist, Compound concentration 10.0 uM
[8] = biological target: SRSF protein kinase 1 (Homo sapiens) (UniProt Q96SB4); conditions: Compound concentration 1000.0 nM
Sequence of SRSF protein kinase 1 (Homo sapiens) (Q96SB4 whole entry): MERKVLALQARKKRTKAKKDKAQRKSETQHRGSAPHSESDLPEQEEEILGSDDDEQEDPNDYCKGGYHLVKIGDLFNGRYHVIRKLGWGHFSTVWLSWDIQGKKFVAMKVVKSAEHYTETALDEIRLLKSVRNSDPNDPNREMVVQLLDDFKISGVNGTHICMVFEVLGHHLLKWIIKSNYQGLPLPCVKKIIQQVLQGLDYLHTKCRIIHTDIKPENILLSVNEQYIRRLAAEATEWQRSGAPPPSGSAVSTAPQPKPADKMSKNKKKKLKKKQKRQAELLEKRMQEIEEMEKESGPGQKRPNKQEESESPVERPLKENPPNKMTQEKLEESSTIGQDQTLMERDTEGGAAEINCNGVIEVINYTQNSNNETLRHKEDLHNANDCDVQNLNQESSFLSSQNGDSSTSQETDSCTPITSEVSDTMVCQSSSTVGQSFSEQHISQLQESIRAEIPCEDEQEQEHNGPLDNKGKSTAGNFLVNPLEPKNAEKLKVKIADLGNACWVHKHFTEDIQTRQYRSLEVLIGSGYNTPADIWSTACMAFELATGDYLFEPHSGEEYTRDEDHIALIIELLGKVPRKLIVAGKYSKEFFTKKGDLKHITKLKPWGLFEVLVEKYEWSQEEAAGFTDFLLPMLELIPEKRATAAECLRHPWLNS

[9] = biological target: Cyclin-dependent kinase-like 3 (Homo sapiens) (UniProt Q8IVW4); conditions: Compound concentration 1000.0 nM
Sequence of Cyclin-dependent kinase-like 3 (Homo sapiens) (Q8IVW4 whole entry, looked up): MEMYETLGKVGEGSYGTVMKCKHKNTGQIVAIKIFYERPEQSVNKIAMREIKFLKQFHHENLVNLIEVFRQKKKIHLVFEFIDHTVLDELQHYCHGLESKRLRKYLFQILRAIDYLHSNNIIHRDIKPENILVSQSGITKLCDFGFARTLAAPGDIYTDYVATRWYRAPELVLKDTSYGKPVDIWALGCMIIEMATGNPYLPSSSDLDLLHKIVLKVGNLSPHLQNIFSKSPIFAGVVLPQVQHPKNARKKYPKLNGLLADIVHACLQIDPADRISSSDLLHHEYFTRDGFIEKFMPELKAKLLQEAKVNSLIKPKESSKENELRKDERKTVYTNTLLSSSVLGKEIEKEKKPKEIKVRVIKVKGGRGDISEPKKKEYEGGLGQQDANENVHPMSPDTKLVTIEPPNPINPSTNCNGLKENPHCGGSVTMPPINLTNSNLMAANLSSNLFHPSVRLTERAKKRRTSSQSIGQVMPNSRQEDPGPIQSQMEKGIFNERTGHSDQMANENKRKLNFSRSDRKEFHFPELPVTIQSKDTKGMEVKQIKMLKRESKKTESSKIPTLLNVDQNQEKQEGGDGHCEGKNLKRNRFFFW

[10] = biological target: Vasopressin V1a receptor (Homo sapiens) (UniProt P37288); experiment: V1 a (h) Eurofins-Cerep binding assay; set-up: ligand concentration 0.3 nM; conditions: filed as agonist, Compound concentration 10.0 uM
[11] = biological target: L-type Ca2+ channel (dihydropyridine site) (Rattus norvegicus, UniProt P22002+P27732+Q02485); experiment: Ca2+ channel (L, dihydropyridine site) Eurofins-Cerep binding assay; format: protein assay; set-up: incubation time 90 min, incubation temperature RT, ligand concentration 0.1 nM; conditions: rat cerebral cortex, probe [3H]nitrendipine (0.1 nM), compound concentration 10 uM, read-out: % Inhibition of Control Specific Binding (Mean n=2)
[12] = biological target: Tyrosine-protein kinase Fgr (Homo sapiens) (UniProt P09769); conditions: Compound concentration 1000.0 nM
Sequence of Tyrosine-protein kinase Fgr (Homo sapiens) (P09769 2-529 limits assumed): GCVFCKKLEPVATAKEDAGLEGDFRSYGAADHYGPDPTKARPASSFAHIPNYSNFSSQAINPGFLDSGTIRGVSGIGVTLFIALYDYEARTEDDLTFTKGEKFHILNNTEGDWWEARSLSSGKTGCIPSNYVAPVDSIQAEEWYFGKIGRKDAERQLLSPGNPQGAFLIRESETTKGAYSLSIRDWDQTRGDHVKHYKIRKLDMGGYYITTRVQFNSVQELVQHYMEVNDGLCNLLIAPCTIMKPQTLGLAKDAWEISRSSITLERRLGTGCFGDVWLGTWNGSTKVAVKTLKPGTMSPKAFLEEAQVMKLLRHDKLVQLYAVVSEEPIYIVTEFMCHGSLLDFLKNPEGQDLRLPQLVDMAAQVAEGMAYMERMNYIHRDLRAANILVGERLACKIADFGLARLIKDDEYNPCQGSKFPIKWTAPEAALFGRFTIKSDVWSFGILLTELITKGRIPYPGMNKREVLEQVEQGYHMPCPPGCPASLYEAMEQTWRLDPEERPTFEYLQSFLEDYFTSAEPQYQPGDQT

[13] = biological target: Serine/threonine-protein kinase PAK 4 (Homo sapiens) (UniProt O96013); conditions: Compound concentration 1000.0 nM
Sequence of Serine/threonine-protein kinase PAK 4 (Homo sapiens) (O96013 whole entry, looked up): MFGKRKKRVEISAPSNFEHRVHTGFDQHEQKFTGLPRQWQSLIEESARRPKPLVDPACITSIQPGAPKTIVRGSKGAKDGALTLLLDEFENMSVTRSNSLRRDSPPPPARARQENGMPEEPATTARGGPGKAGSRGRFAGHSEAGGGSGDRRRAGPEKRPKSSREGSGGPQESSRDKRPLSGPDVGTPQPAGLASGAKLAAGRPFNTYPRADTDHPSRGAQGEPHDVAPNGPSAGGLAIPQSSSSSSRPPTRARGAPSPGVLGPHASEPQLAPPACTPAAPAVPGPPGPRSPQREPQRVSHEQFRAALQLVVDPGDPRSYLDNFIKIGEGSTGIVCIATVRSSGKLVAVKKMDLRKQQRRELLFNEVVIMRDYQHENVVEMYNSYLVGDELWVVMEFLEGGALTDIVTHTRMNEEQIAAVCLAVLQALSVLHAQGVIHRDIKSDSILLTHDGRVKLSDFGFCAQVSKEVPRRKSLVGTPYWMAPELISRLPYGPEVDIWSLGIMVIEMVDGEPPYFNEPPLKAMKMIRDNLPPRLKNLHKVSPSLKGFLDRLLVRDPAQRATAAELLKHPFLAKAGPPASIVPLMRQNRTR

[14] = tested on: Hepatocyte growth factor receptor (Homo sapiens), P08581 [M1250T]; conditions: Compound concentration 1000.0 nM
[15] = biological target: Sodium-dependent serotonin transporter (Homo sapiens) (UniProt P31645); conditions: Compound concentration 10.0 uM
[16] = tested on: Epidermal growth factor receptor (Homo sapiens), P00533 [G719C]; conditions: Compound concentration 1000.0 nM
[17] = biological target: Insulin receptor (Homo sapiens) (UniProt P06213); conditions: Compound concentration 1000.0 nM
[18] = biological target: Casein kinase I isoform alpha (Homo sapiens) (UniProt P48729); conditions: Compound concentration 1000.0 nM
Sequence of Casein kinase I isoform alpha (Homo sapiens) (P48729 2-337 limits assumed): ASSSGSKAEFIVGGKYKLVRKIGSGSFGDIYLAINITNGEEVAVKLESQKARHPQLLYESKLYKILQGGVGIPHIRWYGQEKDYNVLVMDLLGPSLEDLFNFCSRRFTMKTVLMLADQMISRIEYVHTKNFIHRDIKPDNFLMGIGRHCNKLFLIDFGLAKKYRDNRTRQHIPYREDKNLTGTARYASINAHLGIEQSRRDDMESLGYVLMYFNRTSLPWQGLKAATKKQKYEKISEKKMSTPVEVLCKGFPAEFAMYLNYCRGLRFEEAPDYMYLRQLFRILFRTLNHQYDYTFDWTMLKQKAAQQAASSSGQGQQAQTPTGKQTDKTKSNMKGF

[19] = biological target: Protein-tyrosine kinase 6 (Homo sapiens) (UniProt Q13882); conditions: Compound concentration 1000.0 nM
[20] = biological target: Serine/threonine-protein kinase STK11 (Homo sapiens) (UniProt Q15831); conditions: Compound concentration 1000.0 nM
[21] = biological target: NT-3 growth factor receptor (Homo sapiens) (UniProt Q16288); conditions: Compound concentration 1000.0 nM
Sequence of NT-3 growth factor receptor (Homo sapiens) (Q16288 32-839 limits assumed): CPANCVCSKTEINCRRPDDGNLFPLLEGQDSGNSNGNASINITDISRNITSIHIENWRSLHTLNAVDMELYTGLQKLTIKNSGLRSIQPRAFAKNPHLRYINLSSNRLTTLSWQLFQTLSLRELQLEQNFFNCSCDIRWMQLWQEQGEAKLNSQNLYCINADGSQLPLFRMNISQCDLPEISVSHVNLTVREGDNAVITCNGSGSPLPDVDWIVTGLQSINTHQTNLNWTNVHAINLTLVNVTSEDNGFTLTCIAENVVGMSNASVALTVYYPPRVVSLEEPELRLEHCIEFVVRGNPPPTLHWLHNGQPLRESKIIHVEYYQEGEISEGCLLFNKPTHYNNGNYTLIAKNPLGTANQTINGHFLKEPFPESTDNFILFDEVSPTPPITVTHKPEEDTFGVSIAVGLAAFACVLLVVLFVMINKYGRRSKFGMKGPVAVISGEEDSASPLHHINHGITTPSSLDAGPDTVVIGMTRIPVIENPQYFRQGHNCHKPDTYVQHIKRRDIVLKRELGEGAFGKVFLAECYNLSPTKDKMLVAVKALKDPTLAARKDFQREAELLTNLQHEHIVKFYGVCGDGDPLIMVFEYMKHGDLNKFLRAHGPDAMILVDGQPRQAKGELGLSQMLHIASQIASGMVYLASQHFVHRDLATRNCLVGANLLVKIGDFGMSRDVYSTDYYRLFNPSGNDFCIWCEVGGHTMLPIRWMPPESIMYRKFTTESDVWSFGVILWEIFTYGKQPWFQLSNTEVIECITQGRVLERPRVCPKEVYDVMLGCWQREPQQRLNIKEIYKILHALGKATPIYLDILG

[22] = biological target: 5-hydroxytryptamine receptor 4 (Homo sapiens) (UniProt Q13639); experiment: 5-HT4 e (h) Eurofins-Cerep binding assay; set-up: ligand concentration 0.3 nM; conditions: filed as antagonist, Compound concentration 10.0 uM
[23] = biological target: Serine/threonine-protein kinase PAK 2 (Homo sapiens) (UniProt Q13177); conditions: Compound concentration 1000.0 nM
[24] = biological target: GABA-A receptor; anion channel (Rattus norvegicus) (UniProt O09028+P15431+P18506+P18508+P19969+P20236+P23574+P23576+P28471+P28473+P30191+P62813+P63079+P63138+Q91ZM7+Q9ES14); conditions: Compound concentration 10.0 uM
[25] = biological target: Casein kinase I isoform gamma-2 (Homo sapiens) (UniProt P78368); conditions: Compound concentration 1000.0 nM
[26] = biological target: Vascular endothelial growth factor receptor 2 (Homo sapiens) (UniProt P35968); conditions: Compound concentration 1000.0 nM
[27] = biological target: Serine/threonine-protein kinase Sgk1 (Homo sapiens) (UniProt O00141); conditions: Compound concentration 1000.0 nM
Sequence of Serine/threonine-protein kinase Sgk1 (Homo sapiens) (O00141 whole entry): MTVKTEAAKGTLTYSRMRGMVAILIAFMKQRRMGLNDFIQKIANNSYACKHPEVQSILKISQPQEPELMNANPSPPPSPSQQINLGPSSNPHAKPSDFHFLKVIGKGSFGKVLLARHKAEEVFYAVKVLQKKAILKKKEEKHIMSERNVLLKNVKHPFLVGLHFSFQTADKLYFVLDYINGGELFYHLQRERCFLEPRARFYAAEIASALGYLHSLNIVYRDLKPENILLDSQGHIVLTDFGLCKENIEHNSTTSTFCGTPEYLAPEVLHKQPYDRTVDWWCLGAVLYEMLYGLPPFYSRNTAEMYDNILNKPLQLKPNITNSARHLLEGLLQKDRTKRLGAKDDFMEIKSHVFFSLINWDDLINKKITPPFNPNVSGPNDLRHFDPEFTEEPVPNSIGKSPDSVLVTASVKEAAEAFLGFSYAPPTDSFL

[28] = biological target: Inhibitor of nuclear factor kappa-B kinase subunit beta (Homo sapiens) (UniProt O14920); conditions: Compound concentration 1000.0 nM
Sequence of Inhibitor of nuclear factor kappa-B kinase subunit beta (Homo sapiens) (O14920 whole entry): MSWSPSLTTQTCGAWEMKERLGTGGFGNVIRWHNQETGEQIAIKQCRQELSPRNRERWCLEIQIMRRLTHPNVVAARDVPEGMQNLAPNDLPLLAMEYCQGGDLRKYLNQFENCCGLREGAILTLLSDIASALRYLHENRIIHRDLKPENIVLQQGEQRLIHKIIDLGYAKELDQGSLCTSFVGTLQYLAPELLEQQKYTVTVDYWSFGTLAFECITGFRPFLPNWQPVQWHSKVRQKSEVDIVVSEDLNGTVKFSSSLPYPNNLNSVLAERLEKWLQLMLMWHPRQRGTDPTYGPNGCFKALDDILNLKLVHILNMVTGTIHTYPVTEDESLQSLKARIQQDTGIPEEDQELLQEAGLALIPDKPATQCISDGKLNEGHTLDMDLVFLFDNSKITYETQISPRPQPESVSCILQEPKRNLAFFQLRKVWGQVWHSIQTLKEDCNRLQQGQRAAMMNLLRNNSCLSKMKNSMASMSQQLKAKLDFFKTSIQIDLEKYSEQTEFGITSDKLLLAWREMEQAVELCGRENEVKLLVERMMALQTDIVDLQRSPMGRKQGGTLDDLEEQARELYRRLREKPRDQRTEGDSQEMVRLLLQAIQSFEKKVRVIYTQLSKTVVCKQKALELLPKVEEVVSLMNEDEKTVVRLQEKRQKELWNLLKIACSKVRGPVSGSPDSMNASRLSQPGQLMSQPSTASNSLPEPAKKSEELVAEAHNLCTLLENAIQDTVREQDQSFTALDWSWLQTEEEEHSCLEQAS

[29] = biological target: T2, Muscarinic acetylcholine receptor M5 (Homo sapiens) (UniProt P08912); conditions: Compound concentration 10.0 uM
T2 sequence (whole entry): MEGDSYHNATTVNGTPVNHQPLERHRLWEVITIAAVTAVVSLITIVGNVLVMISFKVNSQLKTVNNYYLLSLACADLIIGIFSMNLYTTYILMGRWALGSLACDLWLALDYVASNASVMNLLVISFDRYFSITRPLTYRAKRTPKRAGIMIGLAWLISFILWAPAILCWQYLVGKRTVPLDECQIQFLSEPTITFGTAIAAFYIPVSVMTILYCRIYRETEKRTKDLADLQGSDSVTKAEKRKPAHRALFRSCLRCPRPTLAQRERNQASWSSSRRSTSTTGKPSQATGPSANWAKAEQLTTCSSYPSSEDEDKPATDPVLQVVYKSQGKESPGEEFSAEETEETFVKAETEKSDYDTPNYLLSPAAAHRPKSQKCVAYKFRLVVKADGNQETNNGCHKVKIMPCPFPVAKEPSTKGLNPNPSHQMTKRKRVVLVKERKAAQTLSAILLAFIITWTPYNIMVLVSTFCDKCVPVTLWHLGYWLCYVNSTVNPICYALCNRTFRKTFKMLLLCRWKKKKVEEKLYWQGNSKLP

SMILES: O=C(NS(=O)(=O)c1ccc(NCC2CCOCC2)c([N+](=O)[O-])c1)c1ccc(N2CCN(Cc3ccc(C(F)(F)F)cc3-c3ccc(Cl)cc3)CC2)cc1Oc1cnc2[nH]ccc2c1 [A-1210227]
- inhibition [1]: 9.67%
- residual activity [2]: 99%
- % Inhibition of Control Specific Binding (Mean n=2) [3]: -0.1%
- IC50 [4]: 296 nM (not active)
- residual activity [5]: 100%
- residual activity [6]: 100%
- % Inhibition of Control Specific Binding (Mean n=2) [7]: 10.5%
- residual activity [8]: 100%
- residual activity [9]: 95%
- % Inhibition of Control Specific Binding (Mean n=2) [10]: 3.5%
- inhibition at 90 min, 10 µM [11]: 7.3%
- residual activity [12]: 100%
- residual activity [13]: 93%
- residual activity [14]: 86%
- inhibition [15]: -8.19%
- residual activity [16]: 83%
- residual activity [17]: 89%
- residual activity [18]: 96%
- residual activity [19]: 100%
- residual activity [20]: 100%
- residual activity [21]: 100%
- % Inhibition of Control Specific Binding (Mean n=2) [22]: -2%
- residual activity [23]: 100%
- inhibition [24]: 14.5%
- residual activity [25]: 100%
- residual activity [26]: 100%
- residual activity [27]: 88%
- residual activity [28]: 74%
- inhibition [29]: 10%

SMILES: CO[C@H]1CC[C@H](CNc2ccc(S(=O)(=O)NC(=O)c3ccc(N4CCN(CC5=C(c6ccc(Cl)cc6)CC(C)(C)CC5)CC4)cc3Oc3cnc4[nH]ccc4c3)cc2[N+](=O)[O-])CC1 [A-1211212]
- inhibition [1]: 12.5%
- residual activity [2]: 62%
- % Inhibition of Control Specific Binding (Mean n=2) [3]: -5%
- IC50 [4]: 1.4 nM (active)
- residual activity [5]: 97%
- residual activity [6]: 100%
- % Inhibition of Control Specific Binding (Mean n=2) [7]: -1%
- residual activity [8]: 96%
- residual activity [9]: 83%
- % Inhibition of Control Specific Binding (Mean n=2) [10]: 4.2%
- inhibition at 90 min, 10 µM [11]: 63.2%
- residual activity [12]: 100%
- residual activity [13]: 78%
- residual activity [14]: 96%
- inhibition [15]: 25.1%
- residual activity [16]: 67%
- residual activity [17]: 91%
- residual activity [18]: 85%
- residual activity [19]: 100%
- residual activity [20]: 59%
- residual activity [21]: 100%
- % Inhibition of Control Specific Binding (Mean n=2) [22]: -1%
- residual activity [23]: 68%
- inhibition [24]: 19%
- residual activity [25]: 80%
- residual activity [26]: 100%
- residual activity [27]: 100%
- residual activity [28]: 100%
- inhibition [29]: 12.5%
